In experiment [1] the test system is abnormal opioid peptides in autistic children. Conditions: autistic children that responded to casein free and gluten free diet; measured before and after infusion; cited from earlier work.
Experiment [2] concerns patient, a child with symptoms of autism. Description: Intravenous secretin infusion in a child with symptoms of autism (Example 1). It is filed as in vivo, human. An excerpt: The present invention will be better understood from the following examples which are given by way of illustration and not by way of limitation. The patient, the same in both examples, is a child with symptoms of autism.
The patient in the present examples developed normally […], with the exception of gastrointestinal problems (i.e., chronic diarrhea and constipation) which began at about six months. At about thirteen months, when whole milk was introduced into their diet, the patient began having reoccurring ear infections. At about fourteen months, the patient appeared to lose the ability to process language, first receptively (at about 14 months) then expressively (at about 16 months). The patient also experienced episodes of “shivers” that appeared to be intermittent seizures.
After consulting with numerous neurologists, pediatricians, child development specialists, audiologists, endocrinologists, allergists, and other medical professionals, no consistent diagnosis had been reached. […] The term autism is used herein for reference purposes only, and this invention is intended to apply to any number of pervasive developmental disorders as well as neurological and immunological disorders.
Further, the patient's secretin cells prior to receiving treatment, measured at a level of 9, are far below the normal limit in the range of 20-70.
When the patient was […], the secretin was administered by way of an infusion as part of an upper gastrointestinal endoscopy. The secretin was used in this diagnostic procedure at the request of the patient's parents, one of which is an inventor of the present invention. The secretin used in this procedure is known as Secretin-Ferring available from Ferring Laboratories, Inc., Suffern, New York (See Appendix A). The secretin was dissolved in a […] of sodium chloride and administered in a dosage of 2 clinical units (CU) per kilogram (kg) body weight by intravenous injection over one minute. […] The diagnostic tests performed on the patient during this procedure also indicated gastric inflammation. […] The following Table I summarizes the improvements observed in the patient within 3 weeks after the infusion of secretin.

Experiment [3] shares this test system. Description: Daily transdermal secretin with DMSO in the same patient (Example 2). It is filed as in vivo, human. As for the experimental part: At the time of this treatment, the patient was […]. Secretin was administered transdermally using pharmaceutical grade dimethyl sulfoxide (DMSO) (generally 99.9% pure) available from Clinic Service Co., Box 2512, Hemet Calif. 92543. The secretin (Secretin-Ferring) was administered daily in a dosage of about 75 CU over a five day period (i.e., about 15 CU daily). For each treatment, about 4 drops of DMSO were placed onto the skin of the patient, about 15 CU of the crystalline secretin was placed onto the DMSO, and the composition was rubbed into the skin.

Results on one substance are retold here after patent publication US20010049353A1, “Method of using secretin and compositions made therefrom for the treatment of autism and other neurological, behavioral and immunological disorders” (Repligen Corporation, priority 1998, published 2001).

No end group written: not given here.

In the case of “secretin (HSDGTFTSELSRLRDSARLQRLLQGLV; not fully specified; ends and bridges not checked; UniProt P63298 33-59, looked up) [polypeptide hormone secreted by the mucosa of the duodenum and upper jejunum; used as Secretin-Ferring from Ferring Laboratories]”, the “abnormal opioid peptides after secretin infusion” value in experiment [1] is “the peptides disappeared”. In addition, in experiment [2] (after first infusion, behavioral improvements continued), the “time at which the rate of progress appeared to decrease” value was “about 5 weeks”. The “SPECT scan perfusion of the right posterior parietal and right temporal lobes” value in experiment [2] (after the treatment) is reported as “improved”. The substance further showed a rubella titers in experiment [2] (after the treatment, before: 5.8) of 2.3. The “serotonin levels in blood” value in experiment [2] (blood tests after the treatment) is recorded as “a rise in serotonin levels”. The pancreatic juice released result in experiment [2] (immediately after 2 CU/kg iv over one minute, usual rate 1-2 ml/min) was “approximately 10 ml/min”. Besides, the “result of second and third infusions” value in experiment [2] (second infusion about 9 months after the first, third about three months after the second) is reported as “achieved the same results”. Also, the spinning episodes result in experiment [2] (within 3 weeks after infusion, before: 1-2 times/week) was “No spinning episodes”. Moreover, the toilet training result in experiment [2] (within 3 weeks after infusion, before: diapers only) was “Completely potty trained”. For the same substance, the “eye contact, share of the time” value in experiment [2] (within 3 weeks after infusion, before: minimal eye contact) is listed as “Eye contact 75% of the time”. In addition, the “connections made between language and objects” value in experiment [2] (within 3 weeks after infusion, before: no apparent connections) is reported as “Many connections made between”. In addition, the words spoken in experiment [2] (within 3 weeks after infusion, before: two words) is reported as 100's of words-will repeat some. Also, in experiment [2] (within 3 weeks after infusion, before: watch videos), the interaction with videos entry was “Now, gets “involved” interactively”. Also, the water consumption result in experiment [2] (within 3 weeks after infusion, no change, before: approximately 50 cups per day) is listed as “change approximately 50 cups per cups per day”. In experiment [2] (within days after administration, no change in diet), the “chronic abnormal bowel movements” value was “became normal”. For the same substance, the language entry in experiment [3] (transdermal with DMSO, about 15 CU daily, within about 6 months) is “progressed to spontaneous and conversational language”. The “autistic behavioral symptoms on stopping the daily dose” value in experiment [3] (when the daily dose of secretin is stopped) was “the autistic behavioral symptoms return”.
